The text below walks through data of ChEMBL document CHEMBL1201862, “PubChem BioAssay data set” (2004).

Active and inactive are the calls of the source.

Experiment [1] can be described thus: Luminescence Cell-Based Dose Confirmation HTS to Identify Inhibitors of Polyadenylation. Format: functional.
For experiment [2], the target named is FAD-linked sulfhydryl oxidase ALR (Homo sapiens, UniProt P55789). Put plainly: inhibitors of human ALR sulfhydryl oxidase, dose response, biochemical, H2O2 detection, luminescence, cherry-pick (AID 493248).
Experiment [3] can be described thus: Concentration-dependent survival of SW480 colon cancer line, luminescence detection with CellTiter-Glo, half-maximal inhibitory concentration (AID 1117338). Format: functional. On the technique in general: In ATP-based viability assays light output follows the ATP content of the culture.
A short description of experiment [4]: HeLa 2N DNA content increase, dose response, cell-based, IC50 (AID 1117349). The experiment is classed as functional.
The target in experiment [5] is Nonstructural protein 1 (Influenza A virus, UniProt Q194T2). Format: functional, Influenza A virus (A/California/07/2009(H1N1)).
In experiment [6] the target is Exodeoxyribonuclease V (Escherichia coli (strain K12), UniProt P04993+P07648+P08394). The experiment in a line: E. coli RecBCD inhibitors, dose response, counter-screen for AddAB inhibitor project, absorbance, V66 E. coli, mutant T4 phage (AID 492957). The experiment is classed as functional, cell-based, Escherichia coli str. K-12 substr. MG1655. Background: A counterscreen serves to expose hits that act by an unwanted route or on another target.

The target of experiment [7] is Intestinal-type alkaline phosphatase (Mus musculus, UniProt P24822). Put plainly: PubChem AID 488785. The experiment is classed as functional.
The test system of experiment [8] is Streptococcus sp. 'group A'. The experiment in a line: growth inhibition of control SK(-) GAS strain, dose response, counter-screen for streptokinase expression inhibitor project, luminescence, kanamycin, BacTiterGlo, confirmation (AID 1900). The experiment is classed as functional, organism-based.
Experiment [9] in a line: HeLa 4N DNA content increase, dose response, cell-based, IC50 (AID 1117351). Format: functional.
Experiment [10] in a line: HCT116 cell viability decrease, GSK3B pretreatment – CellTiter-Glo, IC50, dose response (AID 1117339). As to conditions: HCT-116. Format: functional.
A short description of experiment [11]: SNU-C1 cell viability reduction, dose response, CellTiter-Glo luminescence (AID 1117323). Format: functional, cell-based.
Experiment [12] is described as follows: cytotoxicity toward Colo320 cells – cell-based, CellTiter-Glo luminescence, IC50, dose response (AID 1117334). Format: functional. As to conditions: COLO 320.
For experiment [13], the target named is Intestinal-type alkaline phosphatase (Homo sapiens, UniProt P09923). Put plainly: inhibition of human intestinal alkaline phosphatase – biochemical, dose response (AID 488876). The experiment is classed as functional.
Experiment [14] can be described thus: cytotoxicity toward HT-29 cells – cell-based, CellTiter-Glo luminescence, IC50, dose response (AID 1117330). The experiment is classed as functional.
Experiment [15] is described as follows: cytotoxicity toward HCT116 cells – cell-based, CellTiter-Glo luminescence, IC50, dose response (AID 1117332). Format: functional. As to conditions: HCT-116.
A short description of experiment [16]: CellTiter-Glo luminescent dose response of DLD-1 viability loss (AID 1117352). The experiment is classed as functional.
Experiment [17] concerns the target T1, Apoptotic protease-activating factor 1 (Homo sapiens, UniProt O14727).
T1 sequence (O14727 whole entry): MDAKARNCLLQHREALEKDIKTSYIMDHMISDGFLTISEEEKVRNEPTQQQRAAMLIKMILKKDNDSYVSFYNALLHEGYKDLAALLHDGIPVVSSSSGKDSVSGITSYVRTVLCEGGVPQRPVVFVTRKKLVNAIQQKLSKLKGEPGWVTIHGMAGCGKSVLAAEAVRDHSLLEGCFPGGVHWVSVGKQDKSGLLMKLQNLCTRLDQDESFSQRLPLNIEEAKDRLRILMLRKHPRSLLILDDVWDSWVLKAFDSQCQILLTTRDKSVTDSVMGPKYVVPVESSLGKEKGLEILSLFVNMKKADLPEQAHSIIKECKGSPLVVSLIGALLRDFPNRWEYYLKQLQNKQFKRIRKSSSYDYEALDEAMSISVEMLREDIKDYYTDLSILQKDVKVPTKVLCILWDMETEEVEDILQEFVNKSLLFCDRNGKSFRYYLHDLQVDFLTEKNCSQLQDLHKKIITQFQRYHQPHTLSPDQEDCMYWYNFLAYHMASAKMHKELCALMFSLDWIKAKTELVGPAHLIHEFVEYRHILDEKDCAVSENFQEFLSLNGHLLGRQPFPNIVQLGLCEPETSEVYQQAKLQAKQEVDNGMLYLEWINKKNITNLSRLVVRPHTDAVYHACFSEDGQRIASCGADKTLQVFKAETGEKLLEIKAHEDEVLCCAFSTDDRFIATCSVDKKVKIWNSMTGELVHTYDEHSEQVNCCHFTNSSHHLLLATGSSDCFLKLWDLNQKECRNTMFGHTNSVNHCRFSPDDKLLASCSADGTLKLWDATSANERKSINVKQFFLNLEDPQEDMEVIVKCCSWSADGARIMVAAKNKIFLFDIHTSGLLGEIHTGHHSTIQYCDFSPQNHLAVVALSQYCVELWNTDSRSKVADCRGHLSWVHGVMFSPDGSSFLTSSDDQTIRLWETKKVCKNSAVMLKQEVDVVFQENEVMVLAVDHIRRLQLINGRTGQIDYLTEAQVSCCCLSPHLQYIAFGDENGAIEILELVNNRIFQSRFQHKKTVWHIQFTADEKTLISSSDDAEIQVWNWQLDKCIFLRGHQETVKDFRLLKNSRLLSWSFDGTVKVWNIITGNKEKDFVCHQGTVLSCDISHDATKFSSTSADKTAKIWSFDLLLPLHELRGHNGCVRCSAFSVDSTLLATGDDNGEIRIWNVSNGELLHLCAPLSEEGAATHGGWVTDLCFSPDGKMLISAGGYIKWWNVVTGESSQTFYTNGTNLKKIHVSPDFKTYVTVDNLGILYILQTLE
The experiment is classed as functional.

Experiment [18] concerns the target T2, Alkaline phosphatase, tissue-nonspecific isozyme (Homo sapiens, UniProt P05186).
T2 sequence (P05186 whole entry): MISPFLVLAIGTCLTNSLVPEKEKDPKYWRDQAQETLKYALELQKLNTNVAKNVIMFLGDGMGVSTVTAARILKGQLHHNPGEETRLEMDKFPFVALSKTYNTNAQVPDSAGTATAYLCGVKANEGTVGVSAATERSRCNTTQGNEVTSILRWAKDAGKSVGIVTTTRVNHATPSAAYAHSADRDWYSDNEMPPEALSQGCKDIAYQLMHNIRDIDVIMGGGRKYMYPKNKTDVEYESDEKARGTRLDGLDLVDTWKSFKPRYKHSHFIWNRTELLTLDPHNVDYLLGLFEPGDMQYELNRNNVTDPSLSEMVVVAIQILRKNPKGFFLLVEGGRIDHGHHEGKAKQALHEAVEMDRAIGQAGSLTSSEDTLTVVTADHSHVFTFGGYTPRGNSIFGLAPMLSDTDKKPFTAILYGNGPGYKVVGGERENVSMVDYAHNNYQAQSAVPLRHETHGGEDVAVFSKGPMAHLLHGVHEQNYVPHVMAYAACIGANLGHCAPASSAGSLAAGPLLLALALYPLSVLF
The experiment in a line: TNAP enzyme inhibition by screening hits, dose response, selectivity assay for mouse IAP inhibitor project, biochemical, human TNAP, uHTS hits (AID 488906). Format: functional.

The nature of experiment [19]: Counterscreen for AddAB inhibitors: absorbance-based bacterial cell-based high throughput dose response assay for inhibitors of bacterial viability. [Related pubchem assays (depositor defined):AID435030, AID449728, AID449731, AID488942, AID488955, AID488956]. Format: functional.
Experiment [20] has as its system Streptococcus. The experiment in a line: Group A Streptococcus viability loss, dose response, counter-screen for streptokinase expression inhibitor project, luminescence, BacTiterGlo (AID 1915).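 Note: potency for reduction of bacterial viability or growth.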 Format: functional, organism-based.
A short description of experiment [21]: RKO cell viability reduction, dose response, CellTiter-Glo luminescence (AID 1117322). Format: functional.

Sequence of Intestinal-type alkaline phosphatase (Mus musculus, UniProt P24822) (P24822 whole entry): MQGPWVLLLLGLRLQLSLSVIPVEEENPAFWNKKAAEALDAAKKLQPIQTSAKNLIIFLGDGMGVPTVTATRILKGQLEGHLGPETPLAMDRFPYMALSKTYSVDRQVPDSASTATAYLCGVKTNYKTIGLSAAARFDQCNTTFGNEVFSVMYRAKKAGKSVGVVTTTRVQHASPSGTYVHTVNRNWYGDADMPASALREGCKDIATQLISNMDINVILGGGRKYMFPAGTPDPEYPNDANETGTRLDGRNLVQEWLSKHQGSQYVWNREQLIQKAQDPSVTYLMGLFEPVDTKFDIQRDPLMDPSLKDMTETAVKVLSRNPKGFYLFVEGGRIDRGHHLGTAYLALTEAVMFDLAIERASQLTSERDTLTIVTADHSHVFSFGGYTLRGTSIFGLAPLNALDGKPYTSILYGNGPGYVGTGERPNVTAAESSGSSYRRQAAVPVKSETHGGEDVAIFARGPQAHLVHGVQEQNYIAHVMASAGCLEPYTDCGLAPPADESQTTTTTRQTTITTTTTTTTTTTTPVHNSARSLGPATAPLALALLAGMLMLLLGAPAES
Sequence of Intestinal-type alkaline phosphatase (Homo sapiens, UniProt P09923) (P09923 whole entry): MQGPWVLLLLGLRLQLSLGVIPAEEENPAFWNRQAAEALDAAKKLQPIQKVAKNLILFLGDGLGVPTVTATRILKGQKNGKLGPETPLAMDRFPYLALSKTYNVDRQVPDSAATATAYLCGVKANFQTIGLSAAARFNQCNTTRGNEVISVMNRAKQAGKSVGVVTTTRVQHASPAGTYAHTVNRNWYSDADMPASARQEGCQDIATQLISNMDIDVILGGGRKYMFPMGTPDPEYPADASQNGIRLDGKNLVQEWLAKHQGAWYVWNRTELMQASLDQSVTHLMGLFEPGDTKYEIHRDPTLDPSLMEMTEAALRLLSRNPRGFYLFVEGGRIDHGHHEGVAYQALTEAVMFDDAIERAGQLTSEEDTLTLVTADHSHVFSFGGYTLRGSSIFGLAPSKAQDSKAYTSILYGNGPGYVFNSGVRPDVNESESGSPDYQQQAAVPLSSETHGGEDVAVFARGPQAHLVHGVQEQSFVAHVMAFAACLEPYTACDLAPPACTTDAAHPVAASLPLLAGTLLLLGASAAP
Sequence of FAD-linked sulfhydryl oxidase ALR (P55789 whole entry): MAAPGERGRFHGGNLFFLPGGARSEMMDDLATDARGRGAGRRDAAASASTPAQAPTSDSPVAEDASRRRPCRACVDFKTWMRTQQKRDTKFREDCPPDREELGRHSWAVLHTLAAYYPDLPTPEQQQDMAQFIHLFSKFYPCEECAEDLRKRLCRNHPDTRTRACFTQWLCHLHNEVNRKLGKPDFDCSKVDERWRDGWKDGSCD
Sequence of Nonstructural protein 1 (Q194T2 whole entry): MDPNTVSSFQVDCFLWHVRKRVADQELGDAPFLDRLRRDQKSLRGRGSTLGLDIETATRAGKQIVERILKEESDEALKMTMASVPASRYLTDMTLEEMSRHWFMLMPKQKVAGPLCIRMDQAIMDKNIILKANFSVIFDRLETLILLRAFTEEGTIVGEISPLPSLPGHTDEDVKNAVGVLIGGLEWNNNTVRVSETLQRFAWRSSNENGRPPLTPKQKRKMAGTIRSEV
Sequence of Exodeoxyribonuclease V (P04993 whole entry): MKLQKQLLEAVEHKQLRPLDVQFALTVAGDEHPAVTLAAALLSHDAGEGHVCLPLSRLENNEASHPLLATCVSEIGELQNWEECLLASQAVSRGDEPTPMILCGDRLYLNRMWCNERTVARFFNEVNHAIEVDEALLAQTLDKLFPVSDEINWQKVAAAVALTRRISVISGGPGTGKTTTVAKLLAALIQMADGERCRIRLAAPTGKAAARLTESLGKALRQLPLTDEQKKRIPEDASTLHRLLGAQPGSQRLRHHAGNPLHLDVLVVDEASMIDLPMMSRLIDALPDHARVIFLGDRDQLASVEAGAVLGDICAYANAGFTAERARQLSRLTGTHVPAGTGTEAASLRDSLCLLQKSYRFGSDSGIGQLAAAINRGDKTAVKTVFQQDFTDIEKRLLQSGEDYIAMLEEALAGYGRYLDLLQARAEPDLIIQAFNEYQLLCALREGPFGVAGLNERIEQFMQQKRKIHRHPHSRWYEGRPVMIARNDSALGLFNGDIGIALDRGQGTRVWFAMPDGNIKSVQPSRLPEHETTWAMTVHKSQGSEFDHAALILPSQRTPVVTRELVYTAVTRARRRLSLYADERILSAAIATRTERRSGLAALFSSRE
Sequence of Exodeoxyribonuclease V (P07648 whole entry): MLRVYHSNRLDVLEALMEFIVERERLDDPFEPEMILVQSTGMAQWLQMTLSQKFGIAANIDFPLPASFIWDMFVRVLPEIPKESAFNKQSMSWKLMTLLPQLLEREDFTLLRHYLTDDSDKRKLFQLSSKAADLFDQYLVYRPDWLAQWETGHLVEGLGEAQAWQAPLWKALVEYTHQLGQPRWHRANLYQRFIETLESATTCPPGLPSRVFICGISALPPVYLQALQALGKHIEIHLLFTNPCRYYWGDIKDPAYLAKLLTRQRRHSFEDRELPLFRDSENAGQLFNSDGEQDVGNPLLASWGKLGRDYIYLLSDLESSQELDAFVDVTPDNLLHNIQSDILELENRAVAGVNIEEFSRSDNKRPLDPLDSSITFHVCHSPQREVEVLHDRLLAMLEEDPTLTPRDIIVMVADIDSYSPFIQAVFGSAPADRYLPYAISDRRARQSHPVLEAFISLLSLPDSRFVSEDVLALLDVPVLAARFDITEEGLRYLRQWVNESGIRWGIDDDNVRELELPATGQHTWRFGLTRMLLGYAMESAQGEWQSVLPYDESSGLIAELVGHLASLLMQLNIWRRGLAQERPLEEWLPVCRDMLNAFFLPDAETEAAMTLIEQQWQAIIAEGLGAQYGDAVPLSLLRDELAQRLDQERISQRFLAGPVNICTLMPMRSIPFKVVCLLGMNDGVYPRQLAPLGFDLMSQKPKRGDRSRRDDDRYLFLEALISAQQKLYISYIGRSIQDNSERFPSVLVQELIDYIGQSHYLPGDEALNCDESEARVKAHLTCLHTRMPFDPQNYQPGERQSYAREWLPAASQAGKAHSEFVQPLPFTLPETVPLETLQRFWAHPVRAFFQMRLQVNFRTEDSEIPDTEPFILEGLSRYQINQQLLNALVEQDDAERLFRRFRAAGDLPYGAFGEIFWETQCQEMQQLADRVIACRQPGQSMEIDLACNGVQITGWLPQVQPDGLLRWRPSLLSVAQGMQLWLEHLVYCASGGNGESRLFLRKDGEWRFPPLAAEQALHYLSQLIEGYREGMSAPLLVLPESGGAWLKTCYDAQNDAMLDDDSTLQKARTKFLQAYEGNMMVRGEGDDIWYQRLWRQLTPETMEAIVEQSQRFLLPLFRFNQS
Sequence of Exodeoxyribonuclease V (P08394 whole entry): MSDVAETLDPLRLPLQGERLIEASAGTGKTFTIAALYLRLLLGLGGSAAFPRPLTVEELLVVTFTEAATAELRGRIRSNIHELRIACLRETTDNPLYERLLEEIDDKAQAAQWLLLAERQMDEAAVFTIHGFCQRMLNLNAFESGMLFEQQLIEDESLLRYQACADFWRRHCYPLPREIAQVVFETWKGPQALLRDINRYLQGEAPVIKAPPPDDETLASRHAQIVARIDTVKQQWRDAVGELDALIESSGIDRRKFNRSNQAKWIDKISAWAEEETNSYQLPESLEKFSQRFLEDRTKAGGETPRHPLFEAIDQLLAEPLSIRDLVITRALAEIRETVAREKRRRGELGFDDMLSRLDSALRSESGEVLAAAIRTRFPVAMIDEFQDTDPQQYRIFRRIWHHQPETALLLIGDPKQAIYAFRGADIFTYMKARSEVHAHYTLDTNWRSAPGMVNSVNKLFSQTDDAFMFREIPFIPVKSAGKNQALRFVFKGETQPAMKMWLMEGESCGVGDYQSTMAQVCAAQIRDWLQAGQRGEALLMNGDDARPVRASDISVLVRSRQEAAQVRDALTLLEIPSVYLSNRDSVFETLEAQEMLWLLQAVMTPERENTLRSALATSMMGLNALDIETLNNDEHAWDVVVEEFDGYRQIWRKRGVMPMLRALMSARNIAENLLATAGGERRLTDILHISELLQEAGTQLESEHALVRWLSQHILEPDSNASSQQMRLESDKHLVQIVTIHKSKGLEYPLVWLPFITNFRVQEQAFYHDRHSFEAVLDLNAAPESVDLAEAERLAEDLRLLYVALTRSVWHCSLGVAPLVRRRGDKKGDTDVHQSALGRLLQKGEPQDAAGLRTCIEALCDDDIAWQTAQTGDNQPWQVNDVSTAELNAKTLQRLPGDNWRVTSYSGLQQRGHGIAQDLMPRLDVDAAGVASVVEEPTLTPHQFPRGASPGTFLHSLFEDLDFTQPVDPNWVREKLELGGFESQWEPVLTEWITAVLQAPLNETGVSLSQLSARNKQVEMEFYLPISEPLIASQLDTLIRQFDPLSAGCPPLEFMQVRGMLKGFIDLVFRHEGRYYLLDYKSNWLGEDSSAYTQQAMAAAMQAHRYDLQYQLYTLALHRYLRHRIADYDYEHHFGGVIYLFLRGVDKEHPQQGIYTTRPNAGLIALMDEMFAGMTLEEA

For orientation: EC50 means the concentration that produces a half-maximal response. The term AC50 denotes the midpoint of the concentration-response curve, whichever way the signal moves. The IC50 is the concentration at which inhibition is half-maximal. `CCN1/C(=C/C=C/c2sc3ccccc3[n+]2CC)Sc2ccccc21`: the EC50 in experiment [1] is 11.1 µM (active); in [8] it was 2.54 µM (active); in experiment [20], 3 µM (active). In experiment [2], the AC50 is 522 nM (active). Also, the IC50 in [3] was 172 nM (active); in [4], 8.51 µM (inactive); in [5], 9.73 µM (active); in experiment [6], 80.9 µM (inactive); in [7], 1.55 µM (active); in experiment [9], > 10 µM (inactive). For the same molecule, the IC50 in [10] was 8.75 nM (active); in [11], 17.2 nM (active); in [12], 562 nM (active); in experiment [13], > 100 µM (inactive); in [14], 8.38 nM (active); in experiment [15] it was 9.57 nM (active). In addition, the IC50 in [16] was 14.8 nM (active); in experiment [17], 20.8 µM (active); in experiment [18] it was 74.8 µM (active); in experiment [19], 99.5 µM (inactive); in experiment [21], 8.98 nM (active).
